The values below come from patent publication US20080146559A1, “4,5,6,7-Tetrahydro-Thieno [2,3-C] Pyridine Derivatives” (priority 2006, published 2008).

Molecules are shown by their SMILES.

Broadly, the Ki is a measure of affinity in units of concentration, obtained from inhibition or displacement.

T1 sequence (Q9Y5N1 whole entry): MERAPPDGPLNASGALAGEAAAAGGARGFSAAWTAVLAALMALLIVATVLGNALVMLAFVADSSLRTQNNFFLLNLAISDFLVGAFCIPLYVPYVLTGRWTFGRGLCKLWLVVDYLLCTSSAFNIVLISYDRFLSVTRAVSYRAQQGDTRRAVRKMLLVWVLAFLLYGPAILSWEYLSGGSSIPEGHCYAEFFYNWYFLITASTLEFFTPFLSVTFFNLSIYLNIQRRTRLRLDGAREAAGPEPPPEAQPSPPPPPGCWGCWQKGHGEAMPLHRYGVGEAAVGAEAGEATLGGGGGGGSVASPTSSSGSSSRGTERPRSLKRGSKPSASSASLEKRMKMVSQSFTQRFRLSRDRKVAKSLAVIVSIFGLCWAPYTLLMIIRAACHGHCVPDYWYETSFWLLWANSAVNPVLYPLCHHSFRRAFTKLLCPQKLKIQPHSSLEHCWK

The assay addresses T1, human H3R (Homo sapiens, UniProt Q9Y5N1).
T1 construct: expressed in transfected cells; host or cells: CHO cells (membranes)
The assay is described as follows: Binding assay with 3H-(R)α-methylhistamine (competition binding). The note with it: membrane of the human H3R-CHO cell line, 3H(R)α-methylhistamine 1 nM, Ki calculated from IC50 by Cheng-Prusoff. How it is done:
Binding assay with ^3H—(R)α-methylhistamine
Saturation binding experiments were performed using HR3-CHO membranes prepared as described in Takahashi, K, Tokita, S., Kotani, H. (2003) J. Pharmacol. Exp. Therapeutics 307, 213-218.
An appropriate amount of membrane (60 to 80 μg protein/well) was incubated with increasing concentrations of ^3H(R)α-Methylhistamine di-hydrochloride (0.10 to 10 nM). Non specific binding was determined using a 200 fold excess of cold (R)α-Methylhistamine dihydrobromide (500 nM final concentration). The incubation was carried out at room temperature (in deep-well plates shaking for three hours). The final volume in each well was 250 μl. The incubation was followed by rapid filtration on GF/B filters (pre-soaked with 100 μl of 0.5% PEI in Tris 50 mM shaking at 200 rpm for two hours). The filtration was made using a cell-harvester and the filter plates were then washed five times with ice cold washing buffer containing 0.5 M NaCl. After harvesting, the plates were dried at 55° C. for 60 min, then we added scintillation fluid (Microscint 40, 40 microl in each well) and the amount of radioactivity on the filter was determined in Packard top-counter after shaking the plates for two hours at 200 rpm at room temperature.
Binding Buffer: 50 mM Tris-HCl pH 7.4 and 5 mM MgCl2×6H2O pH 7.4. Washing Buffer: 50 mM Tris-HCl pH 7.4 and 5 mM MgCl2×6H2O and 0.5 M NaCl pH 7.4. Indirect measurement of affinity of H3R inverse agonists: twelve increasing concentrations (ranging from 10 μM to 0.3 nM) of the selected compounds were always tested in competition binding experiments using membrane of the human H3R—CHO cell line. An appropriate amount of protein, e.g. approximately 500 cpm binding of RAMH at Kd, were incubated for 1 hour at room temperature in 250 μl final volume in 96-well plates in presence of ^3H(R)α-methylhistamine (1 nM final concentration=Kd). Non-specific binding was determined using a 200 fold excess of cold (R)α-methylhistamine dihydrobromide.
All compounds were tested at a single concentration in duplicate. […] The concentration at which 50% inhibition of the radioligand ^3H(R)α-methylhistamine is obtained (the IC50) is determined from the linear regression of a plot of the logarithm of the concentration versus percent inhibition measured for the different concentrations. Ki's were calculated from IC50 based on Cheng-Prusoff equation (Cheng, Y, Prusoff, W H (1973) Biochem Pharmacol 22, 3099-3108): Ki=IC50/[1+D/Kd] wherein D is the concentration of the radioligand and Kd is the binding constant for the radioligand binding to the receptor under the conditions used in the competition experiment.
As to `O=C(c1cccc(F)c1)N1CCc2cc(OCCCN3CCCCC3)sc2C1` [Example 10, (3-fluoro-phenyl)-[2-(3-piperidin-1-yl-propoxy)-4,7-dihydro-5H-thieno[2,3-c]pyridin-6-yl]-methanone], the Ki was 0.0313 µM.

In the case of `CC(C)(C)CC(=O)N1CCc2cc(OCCCN3CCCC3)sc2C1` [Example 20, 3,3-dimethyl-1-[2-(3-pyrrolidin-1-yl-propoxy)-4,7-dihydro-5H-thieno[2,3-c]pyridin-6-yl]-butan-1-one], the Ki is 0.0409 µM. As for `Cc1ccc(S(=O)(=O)N2CCc3cc(OC4CCN(C(C)C)C4)sc3C2)cc1` (stereo not drawn) [Example 94, 2-(1-isopropyl-pyrrolidin-3-yloxy)-6-(toluene-4-sulfonyl)-4,5,6,7-tetrahydro-thieno[2,3-c]pyridine], the figure is 0.0643 µM; as for `CC(C)CN1CCC(Oc2cc3c(s2)CN(C(=O)CC(C)(C)C)CC3)CC1` [Example 44, 1-[2-(1-isobutyl-piperidin-4-yloxy)-4,7-dihydro-5H-thieno[2,3-c]pyridin-6-yl]-3,3-dimethyl-butan-1-one], 0.0417 µM. As for `O=S(=O)(c1ccccc1)N1CCc2cc(OCCCN3CCCC3)sc2C1` [Example 32, 6-benzenesulfonyl-2-(3-pyrrolidin-1-yl-propoxy)-4,5,6,7-tetrahydro-thieno[2,3-c]pyridine], the figure is 0.0336 µM; as for `CC(C)CC(=O)N1CCc2cc(OC3CCN(C(C)C)CC3)sc2C1` [Example 64, 1-[2-(1-isopropyl-piperidin-4-yloxy)-4,7-dihydro-5H-thieno[2,3-c]pyridin-6-yl]-3-methyl-butan-1-one], 0.0131 µM.
